Experimental data taken from ChEMBL document CHEMBL5729519, “Methods and composition of 4-substituted benzoylpiperazine-1-substituted carbonyls as beta-catenin/B-cell lymphoma 9 inhibitors” (2023).

Molecular target: beta-catenin-B-cell lymphoma 9 protein complex (Homo sapiens, UniProt P35222+O00512)
Experiment: Alphascreen Assay: Alphascreen Assays to Determine the Apparent Kd Values for Wild-Type and Mutant β-Catenin/BCL9 InteractionsThe experimental detail using AlphaScreen to determine the apparent Kd values for β-catenin/BCL9 and β-catenine/E-cadherin PPIs has been described previously (Zhang et al. (2015) Anal. Biochem. 469: 43-53). The concentrations of mutant β-catenin proteins used in the assays were the same as that of wild-type β-catenin.
Assay type: protein-complex assay

Sequence of beta-catenin-B-cell lymphoma 9 protein complex (O00512 whole entry, stated change not applied): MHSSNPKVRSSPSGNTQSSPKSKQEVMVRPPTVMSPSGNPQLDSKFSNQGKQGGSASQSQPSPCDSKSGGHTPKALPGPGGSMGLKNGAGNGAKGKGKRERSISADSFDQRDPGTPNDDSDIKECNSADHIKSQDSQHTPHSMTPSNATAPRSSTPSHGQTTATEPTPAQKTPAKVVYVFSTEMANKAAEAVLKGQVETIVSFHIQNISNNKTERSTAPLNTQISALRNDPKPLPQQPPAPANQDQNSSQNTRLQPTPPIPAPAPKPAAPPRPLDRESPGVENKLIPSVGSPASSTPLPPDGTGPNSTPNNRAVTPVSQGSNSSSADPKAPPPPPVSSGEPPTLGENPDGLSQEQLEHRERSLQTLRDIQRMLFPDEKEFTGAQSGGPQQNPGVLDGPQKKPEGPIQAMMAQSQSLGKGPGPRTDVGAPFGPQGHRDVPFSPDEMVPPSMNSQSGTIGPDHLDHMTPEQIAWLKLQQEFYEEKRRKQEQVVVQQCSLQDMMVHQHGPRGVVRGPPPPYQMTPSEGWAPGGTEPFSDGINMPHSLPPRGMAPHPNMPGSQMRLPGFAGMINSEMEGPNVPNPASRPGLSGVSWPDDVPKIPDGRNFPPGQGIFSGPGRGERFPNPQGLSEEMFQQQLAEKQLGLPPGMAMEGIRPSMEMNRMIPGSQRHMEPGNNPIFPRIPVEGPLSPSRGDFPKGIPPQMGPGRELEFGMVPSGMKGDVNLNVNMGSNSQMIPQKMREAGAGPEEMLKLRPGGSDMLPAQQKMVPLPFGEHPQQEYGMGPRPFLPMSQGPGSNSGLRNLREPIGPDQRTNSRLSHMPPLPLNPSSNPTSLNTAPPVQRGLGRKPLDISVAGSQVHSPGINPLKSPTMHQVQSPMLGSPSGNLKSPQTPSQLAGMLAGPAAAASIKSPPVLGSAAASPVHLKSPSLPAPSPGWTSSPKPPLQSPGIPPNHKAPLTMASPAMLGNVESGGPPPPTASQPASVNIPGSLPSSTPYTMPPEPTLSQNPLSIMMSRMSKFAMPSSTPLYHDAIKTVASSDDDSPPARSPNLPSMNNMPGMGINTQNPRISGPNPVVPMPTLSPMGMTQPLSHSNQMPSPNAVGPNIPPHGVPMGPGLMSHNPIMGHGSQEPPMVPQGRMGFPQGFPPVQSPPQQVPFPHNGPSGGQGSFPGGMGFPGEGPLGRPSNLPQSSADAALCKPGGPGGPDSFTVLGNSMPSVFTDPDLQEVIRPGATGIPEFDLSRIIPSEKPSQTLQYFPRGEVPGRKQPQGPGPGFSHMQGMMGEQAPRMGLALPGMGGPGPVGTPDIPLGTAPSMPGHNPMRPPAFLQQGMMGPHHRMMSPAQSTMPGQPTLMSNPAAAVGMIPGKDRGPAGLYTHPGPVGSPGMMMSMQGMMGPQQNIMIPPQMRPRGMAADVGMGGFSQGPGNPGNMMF
Sequence of beta-catenin-B-cell lymphoma 9 protein complex (P35222 2-781 limits assumed, stated change not applied): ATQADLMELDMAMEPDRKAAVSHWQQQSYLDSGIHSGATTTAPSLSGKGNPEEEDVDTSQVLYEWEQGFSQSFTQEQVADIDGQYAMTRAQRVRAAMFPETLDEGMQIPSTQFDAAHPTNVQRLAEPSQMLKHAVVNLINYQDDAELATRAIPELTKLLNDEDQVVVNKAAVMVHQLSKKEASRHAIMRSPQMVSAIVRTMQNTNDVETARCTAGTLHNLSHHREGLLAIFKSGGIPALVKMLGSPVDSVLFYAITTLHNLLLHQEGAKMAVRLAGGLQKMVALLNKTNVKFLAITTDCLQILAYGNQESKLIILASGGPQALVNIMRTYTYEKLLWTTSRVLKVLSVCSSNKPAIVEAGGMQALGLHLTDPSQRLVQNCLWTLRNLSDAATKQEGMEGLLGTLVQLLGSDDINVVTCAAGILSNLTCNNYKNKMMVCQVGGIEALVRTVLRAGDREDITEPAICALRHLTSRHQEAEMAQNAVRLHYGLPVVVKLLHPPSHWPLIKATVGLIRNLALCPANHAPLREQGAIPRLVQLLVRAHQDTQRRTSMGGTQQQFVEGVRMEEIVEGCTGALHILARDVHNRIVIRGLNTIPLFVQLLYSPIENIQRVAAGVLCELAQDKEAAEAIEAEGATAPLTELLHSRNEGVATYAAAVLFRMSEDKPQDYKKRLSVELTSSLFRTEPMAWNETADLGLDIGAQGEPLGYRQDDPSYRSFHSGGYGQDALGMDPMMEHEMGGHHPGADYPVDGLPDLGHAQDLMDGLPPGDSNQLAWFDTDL

Which Ki does the source give for `CC(C)c1cc2c(c(O)c1O)[C@@]1(C(=O)O)CCCC(C)(C)[C@@H]1CC2` here?
Its Ki is 5.3 µM.
